Reference: patent publication US20110171275A1, “GASTRORETENTIVE DRUG DELIVERY SYSTEM, PREPARATION METHOD AND USE THEREOF” (TEAM ACADEMY OF PHARMACEUTICAL SCIENCE, priority 2008, published 2011)

Experiment: Solubility in artificial gastric juice versus artificial intestinal fluid
Type: physicochemical
Details: artificial gastric juice vs artificial intestinal fluid
Protocol: Rosiglitazone is a second-generation thiazolidinedione hypoglycemic agent. Gastric floating tablets of rosiglitazone reported in the literature are prepared by conventional preparation techniques for gastric floating tablets as follows: the hydrophilic gel material with high viscosity, i.e., hydroxypropyl methyl cellulose (HPMC) is selected, to which appropriate amount of foaming agent is added, and then the resulting mixture is compressed into tablets by direct powder compression. The resulting gastric floating tablets are claimed to have the same bioavailability with common tablets administered in a multiple doses [Hao Feng, Zhimin Wang, Dawei Chen, Studies on floating sustained release tablets of rosiglitazone maleate, Journal of China Pharmaceutical University, 2002, 33 (3): 196-199]. […] The gas-vesicle-type floating formulation of the present invention can ensure that the density of the formulation is relatively small (generally<0.6 g/cm^3), thereby it can float at the early stage of administration, since the shape of the capsule keeps unchange in the stomach. Thus, the entire volume of the formulation remains relatively stable, so that stable and sustainable floating capacity is achieved.

- solubility in artificial gastric juice relative to artificial intestinal fluid: about a million times more
SMILES: CN(CCOc1ccc(CC2SC(=O)NC2=O)cc1)c1ccccn1 (stereo not shown) [rosiglitazone]
